Values quoted from earlier work in patent US11059813B2, “Polymorphic forms of Dasatinib” (BIOCON LIMITED, priority 2017, dated 2021).

What was measured:
[1] = co-former alone
[2] = co-former alone; for thermal stability: melting points greater than 300° C.
rat = conditions: in vivo, po

| SMILES | hygroscopicity [1] | chemical stability [2] | thermal stability [2] | LD50 value (rat) [mg/kg] | solubility in water |
| --- | --- | --- | --- | --- | --- |
| Cc1c[nH]c(=O)[nH]c1=O [Thymine] | non-hygroscopic | chemically stable | thermally stable | 3500 |  |
| Nc1ncnc2nc[nH]c12 [Adenine] | non-hygroscopic | chemically stable | thermally stable | 227 |  |
| Cc1nc(Nc2ncc(C(=O)Nc3c(C)cccc3Cl)s2)cc(N2CCN(CCO)CC2)n1 [Dasatinib, N-(2-chloro-6-methylphenyl)-2-[[6-[4-(2-hydroxyethyl)-1-piperazinyl]-2-methyl-4-pyrimidinyl]amino]-5-thiazole carboxamide] |  |  |  |  | poor |
